Experimental data: patent US11236129B2, “IL-17A binding peptides and medical uses thereof” (Dompe' Farmaceutici S.P.A., priority 2018, dated 2022)
pIC50: −log10 of the molar value. Residues, ends and D or L forms follow the SMILES beside them.

Target: IL-17RA/IL17RC dimerization induced by IL-17A (Homo sapiens, UniProt Q16552)
Assay: IL-17RA/IL17RC dimerization assay in response to IL-17A (PathHunter Cytokine Receptor Assay)
Assay type: cell-based
Details: IL-17A at EC80; read-out: IC50 in IL-17RA/IL7RC dimerization assay
In short: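 PathHunter cells with IL-17RA and IL-17RC tagged for β-galactosidase complementation were preincubated 60 min with peptide (1% vehicle). IL-17A was then added at EC80 for 6–16 h at 37 °C, and chemiluminescence was read. Inhibition is relative to the EC80 and vehicle controls.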

IL-17RA/IL17RC dimerization induced by IL-17A, sequence (Q16552 24-155): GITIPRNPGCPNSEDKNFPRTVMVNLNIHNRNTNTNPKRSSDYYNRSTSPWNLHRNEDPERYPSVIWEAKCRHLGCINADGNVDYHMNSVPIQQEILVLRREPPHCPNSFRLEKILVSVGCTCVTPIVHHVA

SMILES | pIC50
CC[C@H](C)[C@H](NC(=O)[C@H](Cc1c[nH]c2ccccc12)NC(=O)[C@H](CC(=O)O)NC(=O)[C@H](Cc1c[nH]c2ccccc12)NC(=O)[C@H](CC(C)C)NC(=O)[C@H](CC(=O)O)NC(=O)[C@H](C)NC(=O)[C@@H]1CCCN1C(=O)[C@H](CC(C)C)NC(=O)[C@H](Cc1ccc(O)cc1)NC(=O)[C@@H](NC(=O)[C@H](CCCNC(=N)N)NC(=O)[C@@H](NC(C)=O)C(C)C)[C@@H](C)CC)C(=O)N[C@@H](CC(N)=O)C(=O)N[C@@H](CCCCN)C(N)=O [SEQ ID NO: 245] (Ac-VRIYLPADLWDWINK-NH2) | > 5.00
CC[C@H](C)[C@H](NC(C)=O)C(=O)N[C@@H](Cc1c[nH]cn1)C(=O)N[C@H](C(=O)N[C@@H](CC(N)=O)C(=O)N[C@H](C(=O)N1CCC[C@H]1C(=O)N[C@@H](C)C(=O)N[C@@H](CC(=O)O)C(=O)N[C@@H](CC(C)C)C(=O)N[C@@H](Cc1c[nH]c2ccccc12)C(=O)N[C@@H](CC(=O)O)C(=O)N[C@@H](Cc1c[nH]c2ccccc12)C(=O)N[C@H](C(=O)N[C@@H](CC(N)=O)C(=O)N[C@@H](CCCCN)C(N)=O)[C@@H](C)CC)[C@@H](C)CC)C(C)C [SEQ ID NO: 177] (Ac-IHVNIPADLWDWINK-NH2) | > 5.00
CC[C@H](C)[C@H](NC(C)=O)C(=O)N[C@@H](Cc1c[nH]cn1)C(=O)N[C@@H](CC(C)C)C(=O)N[C@H](C(=O)N[C@H](C(=O)N1CCC[C@H]1C(=O)N[C@@H](C)C(=O)N[C@@H](CC(=O)O)C(=O)N[C@@H](CC(C)C)C(=O)N[C@@H](Cc1c[nH]c2ccccc12)C(=O)N[C@@H](CC(=O)O)C(=O)N[C@@H](Cc1c[nH]c2ccccc12)C(=O)N[C@H](C(=O)N[C@@H](CC(N)=O)C(=O)N[C@@H](CCCCN)C(N)=O)[C@@H](C)CC)[C@@H](C)CC)[C@@H](C)O [SEQ ID NO: 169] (Ac-IHLTIPADLWDWINK-NH2) | > 5.00
CC[C@H](C)[C@H](NC(C)=O)C(=O)N[C@@H](Cc1c[nH]cn1)C(=O)N[C@H](C(=O)N[C@@H](CCC(N)=O)C(=O)N[C@H](C(=O)N1CCC[C@H]1C(=O)N[C@@H](C)C(=O)N[C@@H](CC(=O)O)C(=O)N[C@@H](CC(C)C)C(=O)N[C@@H](Cc1c[nH]c2ccccc12)C(=O)N[C@@H](CC(=O)O)C(=O)N[C@@H](Cc1c[nH]c2ccccc12)C(=O)N[C@H](C(=O)N[C@@H](CC(N)=O)C(=O)N[C@@H](CCCCN)C(N)=O)[C@@H](C)CC)[C@@H](C)CC)C(C)C [SEQ ID NO: 178] (Ac-IHVQIPADLWDWINK-NH2) | > 5.00
CC[C@H](C)[C@H](NC(=O)[C@H](CCC(=O)O)NC(=O)[C@H](CCC(N)=O)NC(=O)[C@@H]1CCCN1C(=O)[C@@H](NC(=O)[C@@H](NC(=O)[C@@H](NC(=O)[C@H](Cc1c[nH]cn1)NC(=O)[C@@H](NC(C)=O)C(C)C)C(C)C)[C@@H](C)O)C(C)C)C(=O)N[C@@H](Cc1ccc(O)cc1)C(=O)N[C@@H](CCC(=O)O)C(=O)N[C@@H](Cc1c[nH]c2ccccc12)C(=O)N[C@H](C(=O)N[C@@H](CCCNC(=N)N)C(=O)N[C@@H](CCCNC(=N)N)C(N)=O)C(C)C [SEQ ID NO: 236] (Ac-VHVTVPQEIYEWVRR-NH2) | > 5.00
CC[C@H](C)[C@H](NC(C)=O)C(=O)N[C@@H](Cc1c[nH]cn1)C(=O)N[C@H](C(=O)N[C@H](C(=O)N[C@H](C(=O)N1CCC[C@H]1C(=O)N[C@@H](CC(C)C)C(=O)N[C@@H](CCC(=O)O)C(=O)N[C@H](C(=O)N[C@@H](Cc1ccccc1)C(=O)N[C@@H](CCC(=O)O)C(=O)N[C@@H](Cc1c[nH]c2ccccc12)C(=O)N[C@@H](CC(C)C)C(=O)N[C@@H](CCC(N)=O)C(=O)N[C@@H](Cc1c[nH]cn1)C(N)=O)[C@@H](C)CC)[C@@H](C)CC)[C@@H](C)O)C(C)C [SEQ ID NO: 246] (Ac-IHVTIPLEIFEWLQH-NH2) | > 5.00
CC[C@H](C)[C@H](NC(=O)[C@H](CCC(=O)O)NC(=O)[C@H](CC(C)C)NC(=O)[C@@H]1CCCN1C(=O)[C@@H](NC(=O)[C@H](CO)NC(=O)CNC(=O)[C@H](CCCNC(=N)N)NC(=O)[C@H](CC(C)C)NC(C)=O)C(C)C)C(=O)N[C@@H](Cc1ccccc1)C(=O)N[C@@H](CCC(=O)O)C(=O)N[C@@H](Cc1c[nH]c2ccccc12)C(=O)N[C@@H](CC(C)C)C(=O)N[C@@H](CCC(N)=O)C(=O)N[C@@H](Cc1c[nH]cn1)C(N)=O [SEQ ID NO: 253] (Ac-LRGSVPLEIFEWLQH-NH2) | > 5.00
CC[C@H](C)[C@H](NC(C)=O)C(=O)N[C@@H](Cc1c[nH]cn1)C(=O)N[C@H](C(=O)N[C@H](C(=O)N[C@H](C(=O)N[C@H](C(=O)N[C@@H](C)C(=O)N[C@@H](CC(=O)O)C(=O)N[C@@H](CC(C)C)C(=O)N[C@@H](Cc1c[nH]c2ccccc12)C(=O)N[C@@H](CC(=O)O)C(=O)N[C@@H](Cc1c[nH]c2ccccc12)C(=O)N[C@H](C(=O)N[C@@H](CC(N)=O)C(=O)N[C@@H](CCCCN)C(N)=O)[C@@H](C)CC)[C@@H](C)CC)[C@@H](C)CC)[C@@H](C)O)C(C)C [SEQ ID NO: 190] (Ac-IHVTIIADLWDWINK-NH2) | > 5.00

Further lines, results first:

pIC50 | SMILES
> 5.00 | CC(=O)N[C@H](C(=O)N[C@@H](CCCNC(=N)N)C(=O)N[C@H](C(=O)N[C@H](C(=O)N[C@H](C(=O)N1CCC[C@H]1C(=O)N[C@@H](CCC(N)=O)C(=O)N[C@@H](CCC(=O)O)C(=O)N[C@@H](CC(C)C)C(=O)N[C@@H](Cc1c[nH]c2ccccc12)C(=O)N[C@@H](CCC(=O)O)C(=O)N[C@@H](Cc1c[nH]c2ccccc12)C(=O)N[C@H](C(=O)N[C@@H](CCCNC(=N)N)C(=O)N[C@@H](CCCNC(=N)N)C(N)=O)C(C)C)C(C)C)[C@@H](C)O)C(C)C)C(C)C [SEQ ID NO: 235] (Ac-VRVTVPQELWEWVRR-NH2)
> 5.00 | CC[C@H](C)[C@H](NC(C)=O)C(=O)N[C@@H](Cc1c[nH]cn1)C(=O)N[C@@H](Cc1ccc(O)cc1)C(=O)N[C@H](C(=O)N[C@H](C(=O)N1CCC[C@H]1C(=O)N[C@@H](C)C(=O)N[C@@H](CC(=O)O)C(=O)N[C@@H](CC(C)C)C(=O)N[C@@H](Cc1c[nH]c2ccccc12)C(=O)N[C@@H](CC(=O)O)C(=O)N[C@@H](Cc1c[nH]c2ccccc12)C(=O)N[C@H](C(=O)N[C@@H](CC(N)=O)C(=O)N[C@@H](CCCCN)C(N)=O)[C@@H](C)CC)[C@@H](C)CC)[C@@H](C)O [SEQ ID NO: 172] (Ac-IHYTIPADLWDWINK-NH2)
> 6.30 | CC[C@H](C)[C@H](NC(=O)[C@H](Cc1ccc(O)cc1)NC(=O)[C@@H](NC(=O)[C@H](Cc1c[nH]cn1)NC(=O)[C@@H](NC(C)=O)C(C)C)C(C)C)C(=O)N1CCC[C@H]1C(=O)N[C@@H](C)C(=O)N[C@@H](CCC(=O)O)C(=O)N[C@@H](CC(C)C)C(=O)N[C@@H](Cc1c[nH]c2ccccc12)C(=O)N[C@@H](CCC(=O)O)C(=O)N[C@@H](Cc1c[nH]c2ccccc12)C(=O)N[C@H](C(=O)N[C@@H](CCCNC(=N)N)C(=O)N[C@@H](CCCNC(=N)N)C(N)=O)C(C)C [SEQ ID NO: 122] (Ac-VHVYIPAELWEWVRR-NH2)
> 6.30 | CC(=O)N[C@H](C(=O)N[C@@H](Cc1c[nH]cn1)C(=O)N[C@@H](Cc1ccccc1)C(=O)N[C@H](C(=O)N[C@@H](Cc1ccccc1)C(=O)N1CCC[C@H]1C(=O)N[C@@H](CCC(N)=O)C(=O)N[C@@H](CC(=O)O)C(=O)N[C@@H](CC(C)C)C(=O)N[C@@H](Cc1ccc(O)cc1)C(=O)N[C@@H](CC(N)=O)C(=O)N[C@@H](Cc1c[nH]c2ccccc12)C(=O)N[C@H](C(=O)N[C@@H](CCCNC(=N)N)C(=O)N[C@@H](CCCNC(=N)N)C(N)=O)C(C)C)[C@@H](C)O)C(C)C [SEQ ID NO: 147] (Ac-VHFTFPQDLYNWVRR-NH2)
> 6.30 | CC(=O)N[C@H](C(=O)N[C@@H](Cc1c[nH]cn1)C(=O)N[C@@H](Cc1ccccc1)C(=O)N[C@H](C(=O)N[C@@H](Cc1ccccc1)C(=O)N1CCC[C@H]1C(=O)N[C@@H](CCC(N)=O)C(=O)N[C@@H](CC(=O)O)C(=O)N[C@@H](CC(C)C)C(=O)N[C@@H](Cc1ccc(O)cc1)C(=O)N[C@@H](CC(N)=O)C(=O)N[C@@H](Cc1ccccc1)C(=O)N[C@H](C(=O)N[C@@H](CCCNC(=N)N)C(=O)N[C@@H](CCCNC(=N)N)C(N)=O)C(C)C)[C@@H](C)O)C(C)C [SEQ ID NO: 148] (Ac-VHFTFPQDLYNFVRR-NH2)
> 6.30 | CC(=O)N[C@H](C(=O)N[C@@H](Cc1c[nH]cn1)C(=O)N[C@@H](Cc1ccccc1)C(=O)N[C@@H](CCC(N)=O)C(=O)N[C@@H](Cc1ccccc1)C(=O)N1CCC[C@H]1C(=O)N[C@@H](C)C(=O)N[C@@H](CC(=O)O)C(=O)N[C@@H](CC(C)C)C(=O)N[C@@H](Cc1c[nH]c2ccccc12)C(=O)N[C@@H](CCC(=O)O)C(=O)N[C@@H](Cc1c[nH]c2ccccc12)C(=O)N[C@@H](Cc1ccccc1)C(=O)N[C@@H](CCCNC(=N)N)C(=O)N[C@@H](CCCNC(=N)N)C(N)=O)C(C)C [SEQ ID NO: 135] (Ac-VHFQFPADLWEWFRR-NH2)
> 6.30 | CC[C@H](C)[C@H](NC(=O)[C@@H](NC(=O)[C@@H](NC(=O)[C@H](Cc1c[nH]cn1)NC(=O)[C@@H](NC(C)=O)C(C)C)C(C)C)[C@@H](C)O)C(=O)N1CCC[C@H]1C(=O)N[C@@H](C)C(=O)N[C@@H](CC(=O)O)C(=O)N[C@@H](CC(C)C)C(=O)N[C@@H](Cc1c[nH]c2ccccc12)C(=O)N[C@@H](CC(N)=O)C(=O)N[C@@H](Cc1c[nH]c2ccccc12)C(=O)N[C@H](C(=O)N[C@@H](CCCNC(=N)N)C(=O)N[C@@H](CCCNC(=N)N)C(N)=O)C(C)C [SEQ ID NO: 119] (Ac-VHVTIPADLWNWVRR-NH2)
